# Measured values as given in US20190008850A1, “METHOD OF TREATING SCHIZOPHRENIA” (priority 2015, published 2019).
# Where a name gives a salt, the structure may show the parent alone.
# Test system: individuals with schizophrenia
# Assay: Therapeutic administration of dextromethorphan in schizophrenia (summary statement)
# Format: in vivo, human
smiles,measurement,setting,value
"COc1ccc2c(c1)[C@]13CCCC[C@@H]1[C@H](C2)N(C)CC3 [dextromethorphan, morphinan, 3-methoxy-17-methyl-, (9a, 13a, 14a)-hydrobromide monohydrate]",progression of schizophrenia,administered at first break,"mitigated the progression of schizophrenia, and in some cases, reversed the disorder"
same,"positive symptoms, in particular expressions of hostility",in vivo,appears to also reduce some positive symptoms
same,frequency and intensity of negative symptoms,individuals with established schizophrenia diagnoses,significantly reduced
same,negative symptoms of schizophrenia,therapeutic administration,substantially reduces
